{"source": "patent US20120115149A1", "about": "“SEROTONIN TRANSPORTER GENE AND TREATMENT OF ALCOHOLISM” (University of Virginia Patent Foundation, priority 2009, published 2012)", "key": {"alcoholics": {"tested_on": "alcoholics", "assay": "Double-blind placebo-controlled trial of ondansetron in alcoholics randomized by 5'-HTTLPR genotype: self-reported drinking", "format": "in vivo, human", "excerpt": "We randomized 283 alcoholics by genotype in the 5′-regulatory region of the 5-HTT gene (LL/LS/SS) in a controlled double-blind trial. […] We genotyped another functional single nucleotide polymorphism (T/G), rs1042173, in the 3′-untranslated region.\nParticipants. Details of the subject population were similar to those in a previously published study (22). Briefly, our 283 enrollees (73.7% male; 84.4% White, and 15.6% Hispanic) had alcohol dependence but no axis I diagnosis other than nicotine dependence according to the Diagnostic and Statistical Manual of Mental Disorders, 4th edition (23); were aged 20 to 78 years, and scored >8 on the Alcohol Use Disorders Identification Test (24), which assessed the severity of alcohol-related problems.\nAll subjects provided informed consent to participate.\nSubjects were randomized using an urn (25) procedure after the screening visit to either treatment or placebo under each of three different genotypes (LL, LS, or SS alleles of the 5′-HTTLPR) strata. Further characterization of the cohort for rs1042173 of 3′-UTR alleles (i.e., TT/TG/GG) was done post-randomization.\nStudy procedures. Subjects were enrolled in the study whilst they were still drinking (i.e., without a period of abstinence). At enrollment, we collected self-reported drinking based on the timeline follow-back method over the past 90 days (26), genotyped, and collected white blood cells (WBCs) for expression studies.\nFrom weeks 1 to 12, subjects received weekly assessment of drinking using the timeline follow-back method, adverse events using the Systematic Assessment for Treatment Emergent Events (28), alcohol withdrawal using the revised Clinical Institute Withdrawal Assessment for Alcohol scale (17), concomitant medication use, and pill count.\nAll subjects received weekly standardized, manual-driven (29, 30) cognitive behavioral therapy in groups of up to eight subjects as their psychosocial treatment. This comprised an integration of cognitive behavioral and social learning theory that enables alcoholic subjects to achieve and maintain abstinence by enhancing their ability to manage high-risk situations, which can trigger alcohol-seeking behavior (31, 32).\nGenetics testing. DNA was extracted from the blood of each subject at baseline with a Gentra Puregene® kit (QIAGEN Inc., Valencia, Calif.). The 5′-HTTLPR L/S alleles were determined as described earlier (2, 33) with custom-made primers. The alleles of SNP rs1042173 were genotyped with pre-made TaqMan® genotyping assays (Applied Biosystems, Foster City, Calif.) as reported previously (10)."}, "[1]": {"settings": "cited from earlier work; for effect on binge eating, in words: human, in vivo"}, "[2]": {"settings": "alcohol trials, naltrexone 50 mg/day; cited from earlier work"}, "[3]": {"settings": "cited from earlier work"}, "[4]": {"settings": "LL genotype, ondansetron (4 μg/kg twice daily, 11 weeks) vs. placebo, averaged across treatment"}, "[5]": {"settings": "ondansetron LL vs. all other genotype and treatment groups combined"}, "[6]": {"settings": "ondansetron LL/TT vs. all other genotype and treatment groups combined"}, "[7]": {"settings": "within ondansetron recipients, LL vs. LS/SS"}}, "note": "Counter-ions that a name gives are not always drawn."}
{"smiles": "Cc1nccn1CC1CCc2c(c3ccccc3n2C)C1=O", "note": "(stereo not drawn) [ondansetron, 9-methyl-3-[(2-methyl-1H-imidazol-1-yl)methyl]-1,2,3,9-tetrahydrocarbazol-4-one]", "values": [{"measurement": "drinks/drinking day (DDD), difference", "setting": "alcoholics; [4]", "result": "−1.62"}, {"measurement": "percentage of days abstinent (PDA), difference", "setting": "alcoholics; [4]", "result": 11.27, "unit": "%"}, {"measurement": "response by age of onset, in words", "setting": "alcoholics; LL or LL/TT genotype", "result": "responded to ondansetron irrespective of age of onset"}, {"measurement": "effect on drinks/drinking day, in words", "setting": "alcoholics; LL subjects, TT subjects", "result": "reduces drinks/drinking day"}, {"measurement": "response to treatment by rs1042173 genotype, in words", "setting": "alcoholics; alcohol-dependent subjects, TT vs. TG/GG genotype", "result": "respond better"}, {"measurement": "reduction in severity of drinking by 5'-HTTLPR genotype, in words", "setting": "alcoholics; alcoholics with LL genotype vs. LS/SS", "result": "significantly greater reduction in the severity of drinking"}, {"measurement": "drinks/drinking day (DDD), difference", "setting": "alcoholics; [5]", "result": "−1.45"}, {"measurement": "percentage of days abstinent (PDA), difference", "setting": "alcoholics; [5]", "result": 9.65, "unit": "%"}, {"measurement": "drinks/drinking day (DDD), difference", "setting": "alcoholics; [6]", "result": "−2.63"}, {"measurement": "percentage of days abstinent (PDA), difference", "setting": "alcoholics; [6]", "result": 16.99, "unit": "%"}, {"measurement": "drinks/drinking day (DDD), difference", "setting": "alcoholics; [7]", "result": "−1.53"}, {"measurement": "percentage of days abstinent (PDA), difference", "setting": "alcoholics; [7]", "result": 9.73, "unit": "%"}, {"measurement": "effect on binge eating, in words", "setting": "[1]", "result": "reduce binge eating"}]}
{"smiles": "O=C1CC[C@@]2(O)[C@H]3Cc4ccc(O)c5c4[C@@]2(CCN3CC2CC2)[C@H]1O5", "note": "[naltrexone, 17-(Cyclopropylmethyl)-4,5a-epoxy-3,14-dihydroxymorphinan-6-one hydrochloride]", "values": [{"measurement": "individuals unable to tolerate the dose", "setting": "[2]", "result": "about 15%"}]}
{"smiles": "CC1(C)O[C@@H]2[C@@H](CO[C@@]3(COS(N)(=O)=O)OC(C)(C)O[C@@H]23)O1", "note": "[topiramate, 2,3:4,5-Bis-O-(1-methylethylidene)-beta-D-fructopyranose sulfamate]", "values": [{"measurement": "cognitive impairment, individuals reporting", "setting": "[3]; general population", "result": 2.4, "unit": "%"}, {"measurement": "occurrence rate of cognitive impairment", "setting": "[3]; substance abuse field", "result": "about 18.7%"}, {"measurement": "effect on appetite and weight, in words", "setting": "[1]; controlled trials in patients with epilepsy", "result": "suppression of appetite and weight loss"}]}
{"smiles": "O=C1NC(=O)C(c2ccccc2)(c2ccccc2)N1", "note": "[phenyloin]", "values": [{"measurement": "effect on binge eating, in words", "setting": "[1]", "result": "reduced binge eating"}]}
